This experiment addresses T1, renin (Homo sapiens, UniProt P00797).
T1 sequence (P00797 67-406): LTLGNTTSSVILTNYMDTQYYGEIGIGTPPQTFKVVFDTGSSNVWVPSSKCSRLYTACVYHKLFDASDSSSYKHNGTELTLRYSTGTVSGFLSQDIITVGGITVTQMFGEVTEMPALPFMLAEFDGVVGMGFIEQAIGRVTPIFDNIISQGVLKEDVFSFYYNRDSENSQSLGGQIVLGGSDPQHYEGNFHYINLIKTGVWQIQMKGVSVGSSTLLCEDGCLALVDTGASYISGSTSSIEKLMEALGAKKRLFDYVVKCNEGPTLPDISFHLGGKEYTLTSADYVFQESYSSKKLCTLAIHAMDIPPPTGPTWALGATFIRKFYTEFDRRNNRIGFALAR
Description: in vitro renin inhibition, radioimmunoassay for angiotensin I. The format is biochemical. The conditions noted are these: incubated for two hours at 37° in the presence of angiotensinogen, read-out: IC50 (molar concentration of test compound causing a 50% inhibition of the renin activity). The method, then: The compounds of the present invention are valuable because of their ability to inhibit renin in an in vitro assay. Activity is determined by a standard radioimmunoassay for angiotensin I. In the assay, the enzyme renin, incubated for two hours at 37° in the presence of a substrate, angiotensinogen, generates the product angiotensin I. Test compounds are added to the incubation mixture. Relative activity is reported as the IC50, which is the molar concentration of test compound causing a 50% inhibition of the renin activity.
The in vitro test employed is more fully described in "Methods in Enzymatic Analysis", Bergmeyer, J., and Grass, N., eds., 3rd edition Weinheim: Verlag Chemie, pp. 251-258 (1984).

Take `CC(C)C[C@H](NC(=O)[C@H](Cc1c[nH]cn1)NC(=O)[C@H](Cc1ccccc1)NC(=O)OC(C)(C)C)C(O)C(=O)OC(C)C` (some centres unmarked) [Example 1]: the IC50 was 1 µM. Take `CC(C)C[C@H](NC(=O)[C@H](Cc1c[nH]cn1)NC(=O)C(Cc1cccc2ccccc12)Cc1cccc2ccccc12)[C@@H](O)C(=O)OC(C)C` [Example 1b, [2R-[2R*,3S*(S*)]]-2-hydroxy-3-[[-3-(1H-imidazol-4-yl)-2-[[3-(1-naphthalenyl)-2-(1-naphthalenylmethyl)-1-oxopropyl]amino]-1-oxopropyl]amino]-5-methylhexanoic acid, 1-methylethyl ester]: the IC50 turned out to be 0.14 µM.
